Molecules are shown by their SMILES. Bounds are passed on as bounds.

A word on the EC50: it is the concentration needed to bring the measured effect to its halfway point.

One assay deals with T1, FSHR (Homo sapiens, UniProt P23945).
T1 construct: expressed in transfected cells; host or cells: CHO cells, clone Cho-FSHR-LUC-1-1-43
T1 sequence (P23945 18-695): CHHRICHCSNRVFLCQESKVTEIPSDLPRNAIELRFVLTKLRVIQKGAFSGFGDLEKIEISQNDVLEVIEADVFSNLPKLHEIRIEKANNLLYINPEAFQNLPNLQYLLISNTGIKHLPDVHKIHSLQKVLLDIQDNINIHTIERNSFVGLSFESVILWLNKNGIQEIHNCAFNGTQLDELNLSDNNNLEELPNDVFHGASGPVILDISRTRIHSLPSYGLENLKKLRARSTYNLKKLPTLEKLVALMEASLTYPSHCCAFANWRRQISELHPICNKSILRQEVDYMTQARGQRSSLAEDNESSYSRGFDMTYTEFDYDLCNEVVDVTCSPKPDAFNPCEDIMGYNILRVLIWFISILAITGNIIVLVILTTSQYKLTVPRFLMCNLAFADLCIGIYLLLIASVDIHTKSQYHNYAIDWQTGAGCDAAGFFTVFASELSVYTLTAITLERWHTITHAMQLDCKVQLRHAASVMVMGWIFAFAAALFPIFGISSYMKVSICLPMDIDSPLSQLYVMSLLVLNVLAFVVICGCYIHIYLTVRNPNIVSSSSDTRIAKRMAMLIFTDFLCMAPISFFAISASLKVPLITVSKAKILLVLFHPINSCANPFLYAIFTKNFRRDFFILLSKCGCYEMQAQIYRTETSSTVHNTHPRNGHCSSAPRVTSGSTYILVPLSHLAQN
Description: EC50 of cyclic AMP production in CHO FSHR cells + EC20 FSH (Assay A). It is filed as cell-based. The following applies: CHO-FSHR-LUC cells, in presence of EC20 FSH, cAMP HTRF, 1 h 37° C. Background: Time-resolved FRET reads energy transfer from a long-lived donor to a nearby acceptor.

Assay [1] deals with T2, follicle-stimulating hormone (FSH) receptor (Rattus norvegicus, UniProt P20395).
T2 construct: Rat Granulosa EC50 FSH (Assay B); endogenous in cells; host or cells: rat granulosa cells
T2 sequence (P20395 18-692): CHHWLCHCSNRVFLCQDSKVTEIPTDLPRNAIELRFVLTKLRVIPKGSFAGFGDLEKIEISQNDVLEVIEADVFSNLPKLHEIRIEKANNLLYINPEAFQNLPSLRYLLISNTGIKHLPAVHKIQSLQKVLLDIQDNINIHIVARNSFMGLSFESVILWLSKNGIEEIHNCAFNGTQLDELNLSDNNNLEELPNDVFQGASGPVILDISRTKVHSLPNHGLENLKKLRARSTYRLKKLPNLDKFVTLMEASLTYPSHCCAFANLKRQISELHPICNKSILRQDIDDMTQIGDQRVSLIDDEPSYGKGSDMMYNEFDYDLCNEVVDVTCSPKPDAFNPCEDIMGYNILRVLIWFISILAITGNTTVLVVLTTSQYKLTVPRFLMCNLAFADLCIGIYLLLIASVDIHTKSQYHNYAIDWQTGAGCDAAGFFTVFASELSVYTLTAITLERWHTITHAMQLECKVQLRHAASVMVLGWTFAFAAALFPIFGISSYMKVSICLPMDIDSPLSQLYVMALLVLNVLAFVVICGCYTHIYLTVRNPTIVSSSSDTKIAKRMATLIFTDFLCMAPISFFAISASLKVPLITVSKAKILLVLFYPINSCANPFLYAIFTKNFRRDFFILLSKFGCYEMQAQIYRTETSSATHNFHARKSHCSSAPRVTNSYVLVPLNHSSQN
The assay can be described thus: Rat Granulosa EC50 FSH (Assay B). Format: cell-based. The following applies: rat granulosa cells, per Yanofsky et al. 2006.

For `COc1cc2c(cc1-c1c[nH]nc1C)-n1c(-c3ccsc3)nc(C(=O)N(C)C(C)(C)C)c1CC2` [Compound 76, 7-Methoxy-8-(3-methyl-1H-pyrazol-4-yl)-1-thiophen-3-yl-4,5-dihydro-imidazo+1,5-a+quinoline-3-carboxylic acid tert-butyl-methyl-amide], the values for the EC50 (at FSHR; in assay [1]) were < 100 nM and 100 to 1000 nM, respectively. Turning to `[2H]C([2H])([2H])n1cc(-c2cc3c(cc2OC)CCc2c(C(=O)N4CCOCC4(C)C)nc(-c4cccn4C)n2-3)cn1` [Compound 149, (3,3-dimethylmorpholino)(7-methoxy-8-(1-methyl-1H pyrazol-4-yl)-1-(1-methyl-1H-pyrrol-2-yl)-4,5-dihydroimidazo[1,5-a]quinolin-3-yl)methanone], the concentration for a half-maximal effect (EC50) on FSHR was < 100 nM; in assay [1], 1000 to 5000 nM. The matching figures for `COc1cc2c(cc1OC(C)C)-n1c(-c3ccc(C)s3)nc(C(=O)N3CCOCC3(C)C)c1CC2` [Compound 71]: < 100 nM and 100 to 1000 nM. With `COc1cc2c(cc1OC(C)C)-n1c(-c3ccsc3)nc(C(=O)N3CCCN(C(=O)C4CCC4)CC3)c1CC2` [Compound 6], the EC50 (at FSHR; in assay [1]) was < 100 nM each time. Take `COc1cc2c(cc1CC(C)C)-n1c(-c3ccc(C)s3)nc(C(=O)N(C)C(C)(C)C)c1CC2` [Compound 96, 8-Isobutyl-7-methoxy-1-(5-methyl-thiophen-2-yl)-4,5-dihydro-imidazo[1,5-a]quinoline-3-carboxylic acid tert-butyl-methyl-amide]: the figures for the EC50 (at FSHR; in assay [1]) were 100 to 1000 nM and 1000 to 5000 nM, respectively.

In the case of `COc1cc2c(cc1-c1ccn(C)n1)-n1c(-c3cccc(Cl)c3)nc(C(=O)N3CCOCC3(C)C)c1CC2` [Compound 148, (1-(3-chlorophenyl)-7-methoxy-8-(1-methyl-1H-pyrazol-3-yl)-4,5-dihydroimidazo[1,5-a]quinolin-3-yl)(3,3-dimethylmorpholino)methanone], the EC50 was in the range of 100 to 1000 nM on FSHR and 1000 to 5000 nM in assay [1].

On to `COc1cc2c(cc1OC(C)C)-n1c(C3=CCCC3)nc(C(=O)N3CCOCC3(C)C)c1CC2` [Compound 49], for which the EC50 on FSHR is 100 to 1000 nM; in assay [1], > 5000 nM.

Turning to `COc1cc2c(cc1OC(C)C)-n1c(-c3cc(C)cs3)nc(C(=O)N3CCOCC3(C)C)c1CC2` [Compound 70], the EC50 at FSHR was < 100 nM; in assay [1], 1000 to 5000 nM. Take `COc1cc2c(cc1CC(C)C)-n1c(-c3ccc[nH]3)nc(C(=O)N3CCOCC3(C)C)c1CC2` [Compound 30, (3,3-Dimethyl-morpholin-4-yl)-[8-isobutyl-7-methoxy-1-(1H-pyrrol-2-yl)-4,5-dihydro-imidazo[1,5-a]quinolin-3-yl]-methanone]: the figures for the EC50 (on FSHR; in assay [1]) were 100 to 1000 nM and > 5000 nM, respectively. The matching figures for `COc1cc2c(cc1OC(C)C)-n1c(-c3ccc(F)c(F)c3)nc(C(=O)N3CCOCC3(C)C)c1CC2` [Compound 102]: 100 to 1000 nM and 1000 to 5000 nM.

`COc1cc2c(cc1OC(C)C)-n1c(-c3cc(Cl)cc(Cl)c3)nc(C(=O)N3CCOCC3(C)C)c1CC2` [Compound 110]: the EC50 on FSHR is < 100 nM; in assay [1], 100 to 1000 nM.

With `COc1cc2c(cc1CC(C)C)-n1c(-c3ccc(Cl)s3)nc(C(=O)N(C)C(C)(C)C)c1CC2` [Compound 97, 1-(5-Chloro-thiophen-2-yl)-8-isobutyl-7-methoxy-4,5-dihydro-imidazo[1,5-a]quinoline-3-carboxylic acid tert-butyl-methyl-amide], the EC50 on FSHR is < 100 nM; in assay [1], 100 to 1000 nM.

As for `[2H]C([2H])([2H])N(CCN(C(=O)c1nc(-c2cccs2)n2c1CCc1cc(OC)c(CC(C)C)cc1-2)C([2H])([2H])[2H])C(C)=O` [Compound 31, 8-Isobutyl-7-methoxy-1-thiophen-2-yl-4,5-dihydro-imidazo[1,5-a]quinoline-3-carboxylic acid [2-(acetyl-methyl-d3-amino)-ethyl]-methyl-d3-amide], the EC50 at FSHR was 100 to 1000 nM; in assay [1] it was > 5000 nM. The matching figures for `COc1cc2c(cc1OC(C)C)-n1c(-c3cccc(Cl)c3)nc(C(=O)N3CCOCC3(C)C)c1CC2` [Compound 44]: 100 to 1000 nM and > 5000 nM.

Consider `COc1cc2c(cc1OC(C)C)-n1c(-c3ccc(F)s3)nc(C(=O)N3CCOCC3(C)C)c1CC2` [Compound 59], for which the EC50 on FSHR is < 100 nM; in assay [1] it was 100 to 1000 nM. Turning to `COc1cc2c(cc1OC(C)C)-n1c(-c3cccs3)nc(C(=O)N3CCCN(C(=O)C4CCC4)CC3)c1CC2` [Compound 7], the figures for the EC50 (at FSHR; in assay [1]) were < 100 nM and 100 to 1000 nM, respectively. For `COc1cc2c(cc1CC(C)C)-n1c(-c3ccc(F)s3)nc(C(=O)N(C)C(C)(C)C)c1CC2` [Compound 21, 1-(5-Fluoro-thiophen-2-yl)-8-isobutyl-7-methoxy-4,5-dihydro-imidazo[1,5-a]quinoline-3-carboxylic acid tert-butyl-methyl-amide], the EC50 on FSHR was < 100 nM; in assay [1], 1000 to 5000 nM. Take `COc1cc2c(cc1-c1cnn(C)c1)-n1c(-c3cccs3)nc(C(=O)N3CCOCC3(C)C)c1CC2` [Compound 75, (3,3-Dimethyl-morpholin-4-yl)-[7-methoxy-8-(1-methyl-1H-pyrazol-4-yl)-1-thiophen-2-yl-4,5-dihydro-imidazo[1,5-a]quinolin-3-yl]-methanone]: the 50% effective concentration (EC50) is < 100 nM at FSHR and 100 to 1000 nM in assay [1]. Consider `[2H]C([2H])([2H])OCC(C)(C)N(C(=O)c1nc(-c2cccs2)n2c1CCc1cc(OC)c(CC(C)C)cc1-2)C([2H])([2H])[2H]` [Compound 32, 8-Isobutyl-7-methoxy-1-thiophen-2-yl-4,5-dihydro-imidazo[1,5-a]quinoline-3-carboxylic acid (2-methoxy-d3-1,1-dimethyl-ethyl)-methyl-d3-amide], for which the EC50 at FSHR is < 100 nM; in assay [1], > 5000 nM. In the same order, the values of `COc1cc2c(cc1OC(C)C)-n1c(-c3cc(Cl)cs3)nc(C(=O)N3CCOCC3(C)C)c1CC2` [Compound 114] are < 100 nM and 100 to 1000 nM.

Take `COc1cc2c(cc1CC(C)C)-n1c(-c3cccs3)nc(C(=O)N(C)CCN3CCOC3=O)c1CC2` [Compound 25, 8-Isobutyl-7-methoxy-1-thiophen-2-yl-4,5-dihydro-imidazo[1,5-a]quinoline-3-carboxylic acid methyl-[2-(2-oxo-oxazolidin-3-yl)-ethyl]-amide]: the results for the EC50 (on FSHR; in assay [1]) were < 100 nM and 100 to 1000 nM, respectively. `COc1cc2c(cc1CC(C)C)-n1c(C3CCN(C)CC3)nc(C(=O)N(C)C(C)(C)C)c1CC2` [Compound 22, N-(tert-butyl)-8-isobutyl-7-methoxy-N-methyl-1-(1-methylpiperidin-4-yl)-4,5-dihydroimidazo[1,5-a]quinoline-3-carboxamide]: the EC50 on FSHR fell in the range of 1000 to 5000 nM.

As for `COc1cc2c(cc1-c1ccn(C)n1)-n1c(-c3ccsc3)nc(C(=O)N(C)C(C)(C)C)c1CC2` [Compound 77, 7-Methoxy-8-(1-methyl-1H-pyrazol-3-yl)-1-thiophen-3-yl-4,5-dihydro-imidazo[1,5-a]quinoline-3-carboxylic acid tert-butyl-methyl-amide], the EC50 at FSHR lay within 100 to 1000 nM. In the case of `COc1cc2c(cc1OC(C)C)-n1c(C3=CCCN(C)C3)nc(C(=O)N3CCOCC3(C)C)c1CC2` [Compound 93], at FSHR, the EC50 is > 5000 nM. With `COc1cc2c(cc1NC(=O)C(C)C)-n1c(-c3cccs3)nc(C(=O)N3CCOCC3(C)C)c1CC2` [Compound 78, N-[3-(3,3-Dimethyl-morpholine-4-carbonyl)-7-methoxy-1-thiophen-2-yl-4,5-dihydro-imidazo[1,5-a]quinolin-8-yl]-isobutyramide], the EC50 on FSHR was 100 to 1000 nM.

For the compound `COc1cc2c(cc1OC(C)C)-n1c(-c3ccncc3)nc(C(=O)N(C)C(C)(C)C)c1CC2` [Compound 13], the EC50 at FSHR was > 5000 nM.

The record behind these values is patent US10138233B2, “Imidazole compounds as modulators of FSHR and uses thereof” (Merck Patent GmbH, priority 2013, dated 2018).
